Measured values as given in patent publication US20260226056A1, “SUBSTITUTED 1H-PYRAZOLE-4-CARBOXAMIDES AS SARM1 INHIBITORS” (DISARM THERAPEUTICS, INC., priority 2023, published 2026).

Molecular target: T1, hSARM1 (Homo sapiens, UniProt Q6SZW1)
T1 construct: This assay makes use of full length SARM1, which encompasses the ARM, SAM and TIR domains; made in house; host or cells: NRK1-HEK293T cells (transient transfection; cleared lysate used as enzyme)
T1 sequence (Q6SZW1 28-724): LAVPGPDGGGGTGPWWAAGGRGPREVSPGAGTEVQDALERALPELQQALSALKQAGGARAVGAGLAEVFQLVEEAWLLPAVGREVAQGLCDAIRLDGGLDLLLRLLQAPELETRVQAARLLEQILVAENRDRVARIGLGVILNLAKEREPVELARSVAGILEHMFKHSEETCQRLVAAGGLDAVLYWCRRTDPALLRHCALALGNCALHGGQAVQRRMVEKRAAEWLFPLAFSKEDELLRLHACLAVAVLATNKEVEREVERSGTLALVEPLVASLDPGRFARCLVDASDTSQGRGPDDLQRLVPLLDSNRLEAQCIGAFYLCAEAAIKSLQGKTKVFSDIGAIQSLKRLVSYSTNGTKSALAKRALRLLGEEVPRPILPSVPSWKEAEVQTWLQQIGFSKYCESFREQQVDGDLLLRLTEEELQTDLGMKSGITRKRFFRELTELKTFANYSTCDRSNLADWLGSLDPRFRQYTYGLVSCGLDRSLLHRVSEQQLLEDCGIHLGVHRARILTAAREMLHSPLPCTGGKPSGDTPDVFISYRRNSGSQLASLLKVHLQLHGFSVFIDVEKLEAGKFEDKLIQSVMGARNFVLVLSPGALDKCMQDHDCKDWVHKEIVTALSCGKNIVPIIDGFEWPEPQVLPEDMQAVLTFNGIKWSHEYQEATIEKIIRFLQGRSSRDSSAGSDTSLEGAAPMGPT
Assay: ARM-SAM-TIR SARM1 IC50 Assay (NADase activity, NAD+ cleavage, RapidFire MS)
Assay type: biochemical
Conditions: ARM-SAM-TIR lysate 5 μg/mL, 2 hrs. pre-incubation with compound, 5 μM NAD+, 2 hrs. incubation
Experimental: This describes an assay of ARM-SAM-TIR NADase activity and use of this assay to measure the efficacy of compounds of the present invention to block SARM1 mediated NAD+ cleavage. This assay was optimized in such a way as to characterize the efficacy of the compounds of the present invention to inhibit SARM1 activity and to calculate an IC50 value for each compound. This assay makes use of full length SARM1, which encompasses the ARM, SAM and TIR domains.
NRK1-HEK293T cells were seeded onto 150 cm^2 plates at 20×10^6 cells per plate. The next day, the cells were transfected with 15 μg ARM-SAM-TIR expression plasmid (SEQ ID NO: 1 as disclosed in WO 2019/236879, Pages 77-81; Paragraph) [0310]).
The cultures were supplemented with 1 mM NR at time of transfection to minimize toxicity from ARM-SAM-TIR overexpression. Forty-eight hours after transfection, cells were harvested, pelleted by centrifugation at 1,000 rpm (Sorvall ST 16R centrifuge, Thermo Fisher), and washed once with cold PBS (0.01 M phosphate buffered saline NaCl 0.138 M; KCl 0.0027 M; pH 7.4). The cells were resuspended in PBS with protease inhibitors (Complete™ protease inhibitor cocktail, Roche product #11873580001) and cell lysates were prepared by sonication (Branson Sonifer 450, output=3, 20 episodes of stroke). The lysates were centrifuged (12,000×g for 10 min at 4° C.) to remove cell debris and the supernatants (containing ARM-SAM-TIR protein) were stored at −80° C. for later use in the in vitro ARM-SAM-TIR NADase assay (see below). Protein concentration was determined by the Bicinchoninic (BCA) method and used to normalize lysate concentrations.
The enzymatic assay was performed in a 384-well polypropylene plate in Dulbecco's PBS buffer in a final assay volume of 20 μL. ARM-SAM-TIR lysate with a final concentration of 5 μg/mL was pre-incubated with the respective compound at 1% DMSO final assay concentration over 2 hrs. at room temperature. The reaction was initiated by addition of 5 μM final assay concentration of NAD+ as substrate. After a 2 hrs. ambient temperature incubation, the reaction was terminated with 40 μL of stop solution of 7.5% trichloroacetic acid in acetonitrile. The NAD+ and ADPR concentrations were analyzed by a RapidFire High Throughput Mass Spectrometry System (Agilent Technologies, Santa Clara, CA) using an API4000 triple quadrupole mass spectrometer (AB Sciex Framingham, MA).
Compounds having an activity designated as “A” provided an IC50<50 nM; compounds having an activity designated as “B” provided an IC50 51-100 nM; compounds having an activity designated as “C” provided an IC50 101-500 nM; compounds having an activity designated as “D” provided an IC50 501-1000 nM; compounds having an activity designated as “E” provided an IC50>1000 nM.

IC50 [nM] | Compound
101 to 500 | O=C(CCc1ccc(Cl)nc1)Nc1[nH]nc2c1c(=O)[nH]c1cnccc12 [Example 1, 3-(6-Chloropyridin-3-yl)-N-(4-oxo-4,5-dihydro-2H-pyrazolo[4,3-c][1,7]naphthyridin-3-yl)propanamide]
101 to 500 | O=C(CCc1ccc(F)nc1)Nc1[nH]nc2c1c(=O)[nH]c1cnccc12 [Example 2, 3-(6-Fluoropyridin-3-y1)-N-(4-oxo-4,5-dihydro-2H-pyrazolo[4,3-c][1,7]naphthyridin-3-yl)propanamide]
< 50 | O=C(CCc1ccc(Cl)cc1)Nc1[nH]nc2c1c(=O)[nH]c1cnccc12 [Example 3, 3-(4-Chlorophenyl)-N-(4-oxo-4,5-dihydro-2H-pyrazolo[4,3-c][1,7]naphthyridin-3-yl)propanamide]
< 50 | O=C(CCc1ccc(Cl)c(F)c1)Nc1[nH]nc2c1c(=O)[nH]c1cnccc12 [Example 4, 3-(4-Chloro-3-fluorophenyl)-N-(4-oxo-4,5-dihydro-2H-pyrazolo[4,3-c][1,7]naphthyridin-3-yl)propanamide]
51 to 100 | O=C(CCc1cnc(Cl)c(F)c1)Nc1[nH]nc2c1c(=O)[nH]c1cnccc12 [Example 5, 3-(6-Chloro-5-fluoro-3-pyridyl)-N-(4-oxo-2,5-dihydropyrazolo[4,3-c][1,7]naphthyridin-3-y1)propanamide]
< 50 | O=C(CCc1ccc(F)c(F)c1)Nc1[nH]nc2c1c(=O)[nH]c1cnccc12 [Example 6, 3-(3,4-Difluorophenyl)-N-(4-oxo-4,5-dihydro-2H-pyrazolo[4,3-c][1,7]naphthyridin-3-yl)propanamide]
51 to 100 | NC(=O)c1c(-c2ccncc2)n[nH]c1NC(=O)CCc1ccc(Cl)c(Cl)c1 [Example 7, 5-(3-(3,4-Dichlorophenyl)propanamido)-3-(pyridin-4-yl)-1H-pyrazole-4-carboxamide]
101 to 500 | NC(=O)c1c(-c2ccncc2)n[nH]c1NC(=O)CCc1ccc(F)c(F)c1 [Example 8, 5-(3-(3,4-Difluorophenyl)propanamido)-3-(pyridin-4-y1)-1H-pyrazole-4-carboxamide]
101 to 500 | NC(=O)c1c(-c2ccncc2)n[nH]c1NC(=O)CCc1ccc(Cl)nc1 [Example 9, 5-(3-(6-Chloropyridin-3-yl)propanamido)-3-(pyridin-4-y1)-1H-pyrazole-4-carboxamide]
101 to 500 | NC(=O)c1c(-c2ccncc2)n[nH]c1NC(=O)CCc1ccc(F)cc1 [Example 10, 5-(3-(4-Fluorophenyl)propanamido)-3-(pyridin-4-yl)-1H-pyrazole-4-carboxamide]
501 to 1000 | NC(=O)c1c(-c2ccncc2)n[nH]c1NC(=O)CCc1cc(F)cc(F)c1 [Example 11, 5-(3-(3,5-Difluorophenyl)propanamido)-3-(pyridin-4-y1)-1H-pyrazole-4-carboxamide-]
101 to 500 | NC(=O)c1c(-c2ccncc2)n[nH]c1NC(=O)CCc1cnc(Cl)c(F)c1 [Example 12, 5-(3-(6-Chloro-5-fluoropyridin-3-yl)propanamido)-3-(pyridin-4-yl)-1H-pyrazole-4-carboxamide]
< 50 | NC(=O)c1c(-c2ccncc2)n[nH]c1NC(=O)CCc1ccc(Cl)cc1 [Example 13, 5-(3-(4-Chlorophenyl)propanamido)-3-(pyridin-4-yl)-1H-pyrazole-4-carboxamide]
< 50 | NC(=O)c1c(-c2ccncc2)n[nH]c1NC(=O)CCc1ccc(Cl)c(F)c1 [Example 14, 5-(3-(4-Chloro-3-fluorophenyl)propanamido)-3-(pyridin-4-yl)-1H-pyrazole-4-carboxamide]
101 to 500 | NC(=O)c1c(-c2ccncc2)n[nH]c1NC(=O)CCc1ccc(Cl)s1 [Example 15, 5-(3-(5-Chlorothiophen-2-yl)propanamido)-3-(pyridin-4-y1)-1H-pyrazole-4-carboxamide]
> 1000 | Cc1cnncc1-c1n[nH]c(NC(=O)CCc2ccc(F)nc2)c1C(N)=O [Example 16, 5-(3-(6-Fluoropyridin-3-yl)propanamido)-3-(5-methylpyridazin-4-yl)-1H-pyrazole-4-carboxamide]
